This note sets out measurements from US5286864A, “Quinuclidines, their use as medicaments and processes for their preparation” (Boehringer Ingelheim KG, priority 1988, dated 1994).

One assay concerns the target muscarine receptors. Briefly: Receptor bonding studies (radioligand L(+)cis-[2-methyl-^3 H]-N,N,N-trimethyl-1,3-dioxolane-4-methanammonium iodide). The format is binding. The settings on record: cerebral cortex (rat); radioligand L(+)cis-[2-methyl-^3 H]-N,N,N-trimethyl-1,3-dioxolane-4-methanammonium iodide NET-647. On the procedure: The compounds of the general formula I have useful pharmacological properties.
The receptor bonding studies were performed in accordance with the following literature reference [A. Closse, H. bittiger, D. Langenegger and A. Wahner; Naunyn-Schmiedeberg's Arch. Pharmacol. 335,372-377 (1987)].
Receptor bonding studies
L(+)cis-[2-methyl-^3 H]-N,N,N-trimethyl-1,3-
dioxolane-4-methanammonium iodide NET-647,
NEN (New England Nuclear DU PONT).
Organ: Cerebral cortex (rat)

For a further assay, the system named is conscious rabbit. Briefly: EEG (electroencephalogram) of the conscious rabbit. The format is in vivo. The settings on record: 3 mg/kg i.v.

SMILES strings stand for the structures.

By Ki is commonly meant the dissociation constant of the complex between target and ligand, obtained from inhibition or displacement. The molecule `C#CCOC1CN2CCC1CC2` (stereo not drawn) [Example 1, 3-(2-Propynyloxy)-1-azabicyclo[2,2,2]octane] came in with a Ki at muscarine receptors of 159 nM. Further, the “arousal reaction in the EEG” value with conscious rabbit is on record as “exhibits an arousal reaction typical of cholinomimetics”.

With `CCCOC1CN2CCC1CC2` (stereo not drawn) [nC3 H7], affinity on muscarine receptors was put at a Ki of 220 nM.
